# According to patent US11098077B2, “Locked nucleic acid cyclic dinucleotide compounds and uses thereof” (CHINOOK THERAPEUTICS, INC., priority 2016, dated 2021):
# Key:
# [1] = test system: serum TNF-α, IFN-γ, IL-6, MCP-1; assay: Systemic serum pro-inflammatory cytokines by Mouse Inflammation Cytometric Bead Array; conditions: from serum cytokines six hours post-IT injection
# Method: (§5) To assess the ability of the LNA-CDN molecules to promote anti-tumor immunity in aggressive murine tumor models, 6-8 week old female C57BL/6 mice (8 mice per group) were implanted with B16.SIY melanoma tumor cells (1×10^6 cells in 100 μL PBS). […] Treatments began when tumors reached a volume of approximately 100 mm^3, on day 9 post tumor implantation. The compounds were administered by a single subcutaneous injection into the center of the tumor (IT) using a 27 gauge needle. Tumors were measured twice weekly.
# [2] = test system: serum TNF-α, IFN-γ, IL-6, MCP-1; conditions: mouse, in vivo
# Method: as §5
# [3] = test system: B16.SIY melanoma tumor cells; assay: B16.SIY melanoma tumor model, intra-tumoral injection (Example 13); format: in vivo, C57BL/6 mice
# Method: (§1) Tumors were measured twice weekly.
# [4] = molecular target: T1, hSTING HAQ allele in THP1-Dual cells (Homo sapiens, UniProt Q86WV6, G230A/H232R/R293Q/R71H); assay: THP1-Dual IRF-3 inducible secreted luciferase reporter assay (type I interferon activation), without digitonin; format: cell-based
# T1 construct: a human monocyte cell line containing the hSTING HAQ allele; host or cells: THP1-Dual cells
# T1 sequence (Q86WV6 whole entry R71H/G230A/H232R/R293Q): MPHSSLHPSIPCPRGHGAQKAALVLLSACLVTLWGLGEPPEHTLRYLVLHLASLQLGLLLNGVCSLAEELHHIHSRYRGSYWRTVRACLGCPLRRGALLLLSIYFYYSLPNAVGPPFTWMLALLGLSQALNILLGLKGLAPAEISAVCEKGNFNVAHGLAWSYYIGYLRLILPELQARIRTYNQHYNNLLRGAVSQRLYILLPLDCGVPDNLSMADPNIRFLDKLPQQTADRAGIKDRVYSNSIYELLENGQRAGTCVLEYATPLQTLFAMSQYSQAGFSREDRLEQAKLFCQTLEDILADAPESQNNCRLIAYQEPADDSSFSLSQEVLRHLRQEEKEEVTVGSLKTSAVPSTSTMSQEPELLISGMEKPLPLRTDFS
# Method: After 30 minutes, cells were washed and fresh RPMI media containing 10% FBS was added, and cells were incubated at 37° C. with 5% CO2 Cell culture supernatants from each sample were collected after overnight incubation, and 10 μL of the cell culture supernatants was added to 50 μL QUANTI-Luc reagent (Invivogen). Type I interferon activation was determined by measuring secreted luciferase levels on a SpectraMax M3 spectrophotometer (Molecular Devices).
# [5] = molecular target: T2, hSTING HAQ allele (Homo sapiens, UniProt Q86WV6, G230A/H232R/R293Q); assay: Differential scanning fluorometry (DSF) binding to purified STING AA140-379, HAQ allele; conditions: ligand 1 mM, 1 mg/ml STING AA140-379
# T2 construct: DNA encoding amino acids 140-379 (amino acid numbering corresponding to Swiss Prot Q86WV6); 6xHIS (N, cleaved yes); SUMO (N, cleaved yes); made in house; host or cells: Rosetta2 (DE3) E. coli
# T2 sequence (Q86WV6 140-379 G230A/H232R/R293Q limits assumed): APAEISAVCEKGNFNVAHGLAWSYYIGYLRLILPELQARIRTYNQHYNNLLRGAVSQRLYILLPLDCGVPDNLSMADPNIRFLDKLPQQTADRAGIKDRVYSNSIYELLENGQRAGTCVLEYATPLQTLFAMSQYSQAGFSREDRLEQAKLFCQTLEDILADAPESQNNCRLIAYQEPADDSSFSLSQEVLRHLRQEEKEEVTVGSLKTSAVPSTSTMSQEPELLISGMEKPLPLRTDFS
# Method: (§2) Cells were grown in lysogeny broth at 37° C. until a […] absorbance of 0.6 was reached. […] Cell pellets were re-suspended on ice in a buffer containing 50 mM Tris hydrochloride (Tris-HCl) pH 7.5, 500 mM sodium chloride (NaCl), 20 mM imidazole, 10% glycerol, 1 mM tris(2-carboxyethyl)phosphine hydrochloride (TCEP) and protease inhibitor tablet (Pierce) (Buffer A). Cells were lysed using an S-450D sonifier (Emmerson industrial) on ice. […] Protein was aliquoted, flash frozen in liquid nitrogen and stored at −80° C. until use.
# (§3) The protein is heated in the presence of a dye that binds to and fluoresces in hydrophobic environments. The protein is thermally denatured by heating resulting in increased dye binding to the unfolded protein and fluorescence. The temperature midpoint (Tm) of a proteins denaturation is established by calculating the half maximal value of the denaturation curve. The temperature midpoint of the protein in the presence of a ligand is directly related to the affinity of the ligand for the protein and therefore its ability to stabilize the protein at higher temperatures.
# (§4) Each of wild type hSTING, HAQ allele hSTING and REF allele hSTING were used with each of the reference compounds and compounds of the invention as listed in Table 4. Samples were placed in hard shell PCR plate (Bio-Rad). The fluorescence as a function of temperature was recorded in a CFX 96 real time PCR machine (Bio-Rad) reading on the HEX channel, excitation 450-490, emission 560-580 nm. The temperature gradient was from 15-80° C. ramping 0.5° C. per 15 seconds and recording every 0.5° C. After subtraction of the background signal from a sample lacking protein and ligand. The midpoint temperature (Tm) was calculated by fitting the curves of the fluorescence as a function of temperature to a Boltzmann sigmoidal function (Graph Pad Prism).
# [6] = molecular target: T3, hSTING REF allele (Homo sapiens, UniProt Q86WV6); assay: Differential scanning fluorometry (DSF) binding to purified STING AA140-379, REF allele; conditions: DSF; ligand 1 mM; 1 mg/ml STING AA140-379
# T3 construct: DNA encoding amino acids 140-379 (amino acid numbering corresponding to Swiss Prot Q86WV6); 6xHIS (N, cleaved yes); SUMO (N, cleaved yes); made in house; host or cells: Rosetta2 (DE3) E. coli
# T3 sequence (Q86WV6 140-379): as the sequence (Q86WV6 140-379 G230A/H232R/R293Q limits assumed) above, with A91G, R93H, Q154R counted along it
# Method: as §2, §3, §4
# [7] = test system: SIY-specific CD8+ T cells in splenocytes; assay: FACS of splenocytes with SIY pentamer (SIY+ CD8+ T cells); format: in vivo, C57BL/6 mice; conditions: day 7 post IT injection
# Method: as §1
# Data analysis was conducted with FlowJo software (Tree Star).
# [8] = molecular target: T4, hSTING WT (Homo sapiens, UniProt Q86WV6, H232R); assay: Differential scanning fluorometry (DSF) binding to purified STING AA140-379, wild type; conditions: DSF; ligand 1 mM; 1 mg/ml STING AA140-379
# T4 construct: DNA encoding amino acids 140-379 (amino acid numbering corresponding to Swiss Prot Q86WV6); 6xHIS (N, cleaved yes); SUMO (N, cleaved yes); made in house; host or cells: Rosetta2 (DE3) E. coli
# T4 sequence (Q86WV6 140-379 H232R limits assumed): as the sequence (Q86WV6 140-379 G230A/H232R/R293Q limits assumed) above, with A91G, Q154R counted along it
# Method: as §2, §3, §4
# [9] = test system: SIY-specific T cells in splenocytes; assay: IFNγ ELISPOT of splenocytes stimulated with SIY peptide; format: in vivo, C57BL/6 mice; conditions: day 7 post IT injection
structure (smiles),measurement,setting,value
Nc1ncnc2c1ncn2[C@@H]1O[C@@H]2CO[P@@](=O)(S)O[C@H]3[C@H]4OC[C@]3(CO[P@](=O)(S)O[C@@H]1[C@@H]2O)O[C@H]4n1cnc2c(N)ncnc21 [Compound 10c],safety profile compared to reference compound 2′3′-RR-(A)(A),[1],superior safety profile
same,systemic cytokines compared with 2′3′-RR-(A)(A),[2],significantly lower systemic cytokines than 2′3′-RR-(A)(A)
same,tumor efficacy compared to reference compound 2′3′-RR-(A)(A),"[3]; single IT injection, 1 μg dose",comparable tumor efficacy as compared to the reference compound 2′3′-RR-(A)(A)
same,tumor inhibition (tumor volume) compared to HBSS,"[3]; single IT injection, 0.1, 1, 10 and 100 μg","potent tumor inhibition as compared to HBSS, in a dose-dependent manner"
same,EC50,[4],> 150 µM
same,hSTING Tm Shift HAQ,[5],10.4 °C
same,hSTING Tm Shift REF,[6],5.0 °C
same,range of dose responses (therapeutic window for anti-tumor immunity),[7],a broader range of dose responses
same,hSTING Tm Shift WT,[8],6.5 °C
same,IFNγ ELISPOT T cell responses compared to reference compound 2′3′-RR-(A)(A),[9]; 1 μg dose,comparable responses
same,IFNγ ELISPOT responses compared to HBSS,"[9]; all doses tested (0.1, 1, 10, 100 μg)",significantly higher responses
same,range of efficacy (doses giving IFNγ ELISPOT response),[9],an even broader range of efficacy than Compound 5a
